Assays:
[1] = target: T1, Muscarinic acetylcholine receptor M2 (Homo sapiens) (UniProt P08172); experiment: Affinity for Muscarinic acetylcholine receptor M2 of guinea pig heart.; settings: Cavia porcellus; target entry is the homologue from another species
T1 sequence (whole entry): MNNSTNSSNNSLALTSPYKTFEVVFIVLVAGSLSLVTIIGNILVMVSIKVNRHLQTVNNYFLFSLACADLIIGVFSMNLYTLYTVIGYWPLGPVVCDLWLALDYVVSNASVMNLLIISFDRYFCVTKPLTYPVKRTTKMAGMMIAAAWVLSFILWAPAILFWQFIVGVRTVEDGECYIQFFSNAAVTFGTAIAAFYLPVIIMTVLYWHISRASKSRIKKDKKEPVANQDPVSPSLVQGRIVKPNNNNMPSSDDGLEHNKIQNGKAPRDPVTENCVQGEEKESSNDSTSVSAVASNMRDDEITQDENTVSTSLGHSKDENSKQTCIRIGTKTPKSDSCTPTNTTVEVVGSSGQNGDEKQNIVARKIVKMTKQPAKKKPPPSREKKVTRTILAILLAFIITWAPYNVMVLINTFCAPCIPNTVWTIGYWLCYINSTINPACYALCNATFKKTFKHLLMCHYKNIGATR

[2] = target: T2, Muscarinic acetylcholine receptor M1 (Homo sapiens) (UniProt P11229); experiment: Affinity for Muscarinic acetylcholine receptor M1 of rabbit vas deferens.; settings: Oryctolagus cuniculus; target entry is the homologue from another species
T2 sequence (whole entry): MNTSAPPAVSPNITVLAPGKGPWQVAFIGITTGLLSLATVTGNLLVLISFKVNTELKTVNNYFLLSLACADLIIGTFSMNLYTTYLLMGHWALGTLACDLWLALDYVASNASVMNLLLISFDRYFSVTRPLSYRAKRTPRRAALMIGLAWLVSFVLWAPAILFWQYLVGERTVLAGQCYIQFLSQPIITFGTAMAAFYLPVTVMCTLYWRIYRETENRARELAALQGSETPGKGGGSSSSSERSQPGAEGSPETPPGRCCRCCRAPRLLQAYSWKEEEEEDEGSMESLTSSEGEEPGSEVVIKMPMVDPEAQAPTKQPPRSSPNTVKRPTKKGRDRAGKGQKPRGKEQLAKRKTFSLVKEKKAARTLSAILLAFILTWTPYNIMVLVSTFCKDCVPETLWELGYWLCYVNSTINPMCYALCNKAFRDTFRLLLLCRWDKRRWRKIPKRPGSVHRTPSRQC

[3] = target: Muscarinic acetylcholine receptor M3 (Cavia porcellus) (UniProt Q8VH26); experiment: Affinity for Muscarinic acetylcholine receptor M3 of guinea pig ileum.; assay type: tissue-based
Muscarinic acetylcholine receptor M3 (Cavia porcellus), sequence (Q8VH26 1-587): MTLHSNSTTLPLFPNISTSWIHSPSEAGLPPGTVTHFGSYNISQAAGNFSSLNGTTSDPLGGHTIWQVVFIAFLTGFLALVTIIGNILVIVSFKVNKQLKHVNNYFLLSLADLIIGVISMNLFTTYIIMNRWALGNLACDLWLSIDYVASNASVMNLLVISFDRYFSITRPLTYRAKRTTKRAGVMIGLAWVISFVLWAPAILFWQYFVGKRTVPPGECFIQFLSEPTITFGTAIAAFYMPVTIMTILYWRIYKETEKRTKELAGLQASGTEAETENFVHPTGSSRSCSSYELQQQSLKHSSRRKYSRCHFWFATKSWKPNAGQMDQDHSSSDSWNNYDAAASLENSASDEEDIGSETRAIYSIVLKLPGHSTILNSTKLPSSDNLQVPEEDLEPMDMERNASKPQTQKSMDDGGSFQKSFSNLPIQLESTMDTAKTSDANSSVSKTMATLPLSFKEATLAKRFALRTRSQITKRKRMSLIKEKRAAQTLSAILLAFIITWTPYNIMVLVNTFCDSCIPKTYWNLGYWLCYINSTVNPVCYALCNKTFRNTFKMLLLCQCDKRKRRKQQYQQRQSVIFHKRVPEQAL

## CC(C1COC(c2ccccc2)(c2ccccc2)O1)N(C)C (racemic; form 2)
[1]
  pKb: 8.03
[2]
  pKb: 8.11
[3]
  pKb: 7.94

## C[C@H]([C@@H]1COC(c2ccccc2)(c2ccccc2)O1)N(C)C
[1]
  pKb: 7.47
[2]
  pKb: 6.83
[3]
  pKb: 7.45

## C[C@H](C1COC(c2ccccc2)(c2ccccc2)O1)N(C)C (some centres undefined)
[1]
  pKb: 6.41
[2]
  pKb: 6.52
[3]
  pKb: 6.41

## CC(C1COC(c2ccccc2)(c2ccccc2)O1)[N+](C)(C)C (racemic; form 1)
[1]
  pKb: 8.22
[2]
  pKb: 8.01
[3]
  pKb: 8.3

## C[C@@H]([C@H]1COC(c2ccccc2)(c2ccccc2)O1)N(C)C
[1]
  pKb: 8.39
[2]
  pKb: 8.46
[3]
  pKb: 8.92

## CC(C1COC(c2ccccc2)(c2ccccc2)O1)N(C)C (racemic; form 1)
[1]
  pKb: 7.2
[2]
  pKb: 6.95
[3]
  pKb: 6.96

## C[C@H]([C@@H]1COC(c2ccccc2)(c2ccccc2)O1)[N+](C)(C)C
[1]
  pKb: 8.38
[2]
  pKb: 8.23
[3]
  pKb: 8.4

## C[C@@H]([C@H]1COC(c2ccccc2)(c2ccccc2)O1)[N+](C)(C)C
[1]
  pKb: 7.82
[2]
  pKb: 7.47
[3]
  pKb: 7.85

## C[C@@H](C1COC(c2ccccc2)(c2ccccc2)O1)[N+](C)(C)C (some centres undefined)
[1]
  pKb: 8.21
[2]
  pKb: 7.12
[3]
  pKb: 8

## CC(C1COC(c2ccccc2)(c2ccccc2)O1)[N+](C)(C)C (racemic; form 2)
[1]
  pKb: 8.07
[2]
  pKb: 7.82
[3]
  pKb: 7.92

## C[C@@H](C1COC(c2ccccc2)(c2ccccc2)O1)N(C)C (some centres undefined)
[1]
  pKb: 7.35
[2]
  pKb: 6.94
[3]
  pKb: 7.19

## CN(C)CC1COC(c2ccccc2)(c2ccccc2)O1 (centres undefined)
[1]
  pKb: 7.11
[2]
  pKb: 7.15
[3]
  pKb: 6.72

## C[C@H](C1COC(c2ccccc2)(c2ccccc2)O1)[N+](C)(C)C (some centres undefined)
[1]
  pKb: 7.53
[2]
  pKb: 8.24
[3]
  pKb: 7.51

From ChEMBL document CHEMBL1133792, “Synthesis, absolute configuration and antimuscarinic activity of the enantiomers of [1-(2,2-diphenyl-[1,3]dioxolan-4-yl)-ethyl]-dimethyl-amine” (Bioorg Med Chem Lett, 2001)
